# Source: article PMC6390180, “Functionality of membrane proteins overexpressed and purified from E. coli is highly dependent upon the strain” (Scientific Reports, 2019)
# Target: T1, PatA/PatB (Streptococcus pneumoniae, UniProt Q8DN70+Q8DN72)
# T1 construct: gene ABC-NP; full heterodimer co-expressed from pETDuet-1-PatA/PatB in E. coli C41(DE3), BL21(DE3), T7 express or Lemo21(DE3); His-tagged; inverted membrane vesicles, or purified in LMNG / proteoliposomes
# Experiment: fluorescence transport assay, inverted membrane vesicles
# Format: biochemical
# Settings: 1 µM Hoechst 33342, 2 mM GTP, 2 mM MgCl2, pH 8.0, 25 °C; transported drug
# T1 sequence (Q8DN70 entry or part of it): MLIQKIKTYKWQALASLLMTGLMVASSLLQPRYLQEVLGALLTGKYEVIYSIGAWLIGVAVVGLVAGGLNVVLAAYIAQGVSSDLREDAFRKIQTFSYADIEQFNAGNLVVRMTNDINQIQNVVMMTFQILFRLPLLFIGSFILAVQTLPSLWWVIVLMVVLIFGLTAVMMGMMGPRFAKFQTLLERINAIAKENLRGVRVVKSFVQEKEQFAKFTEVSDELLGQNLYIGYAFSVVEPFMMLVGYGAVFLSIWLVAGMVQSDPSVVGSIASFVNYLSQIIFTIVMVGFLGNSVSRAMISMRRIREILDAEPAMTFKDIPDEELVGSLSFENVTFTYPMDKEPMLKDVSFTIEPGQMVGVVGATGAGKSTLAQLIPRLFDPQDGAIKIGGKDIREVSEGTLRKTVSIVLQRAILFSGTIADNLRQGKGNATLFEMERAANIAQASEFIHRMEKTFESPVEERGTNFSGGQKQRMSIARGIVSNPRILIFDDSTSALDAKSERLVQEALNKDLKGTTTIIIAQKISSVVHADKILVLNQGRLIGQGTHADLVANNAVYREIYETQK
# T1 sequence (Q8DN72 entry or part of it): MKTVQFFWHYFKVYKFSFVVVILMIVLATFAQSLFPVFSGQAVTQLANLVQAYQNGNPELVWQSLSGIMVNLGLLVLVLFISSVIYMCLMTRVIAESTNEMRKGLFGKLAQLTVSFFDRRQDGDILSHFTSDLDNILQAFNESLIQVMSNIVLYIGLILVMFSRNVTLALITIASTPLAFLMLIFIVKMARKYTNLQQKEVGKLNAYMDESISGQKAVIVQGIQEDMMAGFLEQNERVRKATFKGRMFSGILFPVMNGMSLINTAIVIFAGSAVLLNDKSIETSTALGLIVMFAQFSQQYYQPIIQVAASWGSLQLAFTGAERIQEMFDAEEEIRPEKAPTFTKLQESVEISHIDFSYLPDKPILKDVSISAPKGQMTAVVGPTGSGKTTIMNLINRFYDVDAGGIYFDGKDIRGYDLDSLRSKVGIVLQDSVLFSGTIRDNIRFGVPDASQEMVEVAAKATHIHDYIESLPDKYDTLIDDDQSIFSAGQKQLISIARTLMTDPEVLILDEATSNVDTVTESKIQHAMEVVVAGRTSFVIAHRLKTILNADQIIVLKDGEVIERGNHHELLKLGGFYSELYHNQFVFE
smiles,measurement,value
"CCOc1ccc(-c2nc3ccc(-c4nc5ccc(N6CCN(C)CC6)cc5[nH]4)cc3[nH]2)cc1 [Hoechst 33342, 2-(4-ethoxyphenyl)-5-(4-methyl-1-piperazinyl)-2,5-bis-1H-benzimidazole]","fluorescence transport assay, inverted membrane vesicles",a fluorescent drug translocated by PatA/PatB
